Results as given in patent publication US10324079B2, “Method for rapid testing allergy” (priority 2013, dated 2019).

Experiments:
Assay type in all cases: cell-based, human
[1] = system: lymphocytes of the patient; assay: DLST (drug-induced lymphocyte stimulation test)
Method: (§1) The patient having the typical allergy-like symptom (skin lesion) and the atypical patient were tested by the three different methods, namely the DLST, which is widely used for clinical tests, the LMT, which is sometimes reported more accurate than the DLST, and the present method, and then the results were compared. […] The typical case was determined as negative though the patient clearly developed the skin symptom of the toxic epidermal necrolysis (TEN) according to the clinical presentation and the clinical course.

[2] = system: leukocytes of the patient; assay: LMT (leukocyte migration test); settings: positive with MI value > 150 and p < 0.05
Method: as §1

[3] = system: Peripheral blood Mononuclear cells (PBMC) of patient #3; leukocytes of a healthy volunteer as chemotactic cells; assay: Migration of healthy-volunteer leukocytes toward reactive solution of patient #3 mononuclear cells stimulated with suspected drug (Example 3); settings: for Velocity (judgment of migration velocity, % of control) / Distance (judgment of migration distance, % of control): patient #3 PBMC + serum, 72 h, suspected drugs at ½ of Cmax, PHA 1 μg/ml, relative to PHA-stimulated reactive solution; for chemotaxis or migration ability of the chemotactic cells (FIG. 5A): images recorded for 20 minutes
Method: Leukocytes including granulocytes such as neutrophils were separated from heparinized blood of a healthy volunteer who had no allergic symptom by the density gradient centrifugation (Lymphocyte (Registered Trademark)—poly: CEDARLANE Labs. Ltd., Ontario, Canada) in accordance with a conventional method, and suspended in 5 ml of a culture medium (RPMI 1640: Sigma-Aldrich, MO, USA). After culturing the cells in a CO2 incubator at 37° C. for 1 hour the cells was adjusted to the concentration of about 5×10^5 cells/ml and used as chemotactic cells.
The chemotactic cells were injected into the lower well in the holder of EZ-TAXIScan™ (GE Healthcare, Tokyo) at about 5 μl/well, and were drawn to the end of the observation terrace by suction. Subsequently, the serum was injected into the upper well at 1.5 μl/well with a microsyringe to create a concentration gradient on the observation terrace, and images of the chemotactic cells on the observation terrace were sequentially recorded. The depth of the terrace was 4 μm.
The kinetics of the chemotactic cells migrating on the observation terrace was analyzed with software for processing images, ImageJ (NIH, MD, USA). Various parameters concerned with chemotaxis or migration ability of the cell toward the serum such as velocity, distance and direction of the migration were calculated. The statistical analysis was performed using GraphPad Prism (Registered Trademark) (GraphPad Software, CA, USA).
A drug solution was prepared by dissolving a drug in a Hank's balanced salt solution (HBSS: Sigma-Aldrich) if the drug was a solid preparation such as a soluble tablet or a powder. If the drug was poorly soluble, it was dissolved in Dimethyl-sulfoxide (DMSO: Sigma-Aldrich) and the solution was diluted with HBSS so that the final concentration of DMSO was 1% or less. A solution containing the drug solution and the serum of the patient in a ratio of 1:1 was used as a solution of the antigenic drug. The concentrations of the suspected drugs were set to ½ of the Cmax in principle. The concentration of phytohemagglutinin (PHA: Wako Pure Chemical Industries, Ltd., Osaka), a control antigen for stimulating or activating the lymphocytes, was set to 1 μg/ml.
Peripheral blood Mononuclear cells (PBMC) were separated from heparinized blood of the patient by density gradient centrifugation (Lymphoprep™: Axis-Shield PoC, Oslo, Norway) in a conventional manner, washed with HBSS, and then adjusted to the concentration of about 5×10^6 cells/ml with a culture medium for reaction (RPMI 1640 containing 10% horse serum (Invitrogen, CA, USA)).
A mixture of the suspension of the mononuclear cells and the solution of the antigenic drug in a ratio of 4:1 was reacted in a CO2 incubator at 37° C. for 72 hours, and the supernatant was used as a reactive solution stimulated with the antigen. PHA (a), gasmotin (b), dogmatyl (c), pariet (d) and DMSO (e) were used as the antigen.
The cell kinetics was measured in the substantially same manner as in Example 1 excepting that the reactive solution stimulated with the antigen was injected into the upper well in place of the serum.

[4] = patient #3, vs other suspected drugs and solvent (c, d and e), p<0.05

Row | Compound | LMT (MI value) ([2]; Patient A) | Velocity (judgment of migration velocity, % of control) [3] | chemotaxis or migration ability of the chemotactic cells (FIG. 5A) ([3]; patient #3) | Distance (judgment of migration distance, % of control) [3] | other results
1 | CCC(C)n1ncn(-c2ccc(N3CCN(c4ccc(OCC5COC(Cn6cncn6)(c6ccc(Cl)cc6Cl)O5)cc4)CC3)cc2)c1=O (stereo not shown) [Itraconazole] | – | – | – | – | DLST (SI value) ([1]; Patient B, test 1, positive with SI value > 180): 151; DLST (SI value) ([1]; Patient B, test 2, positive with SI value > 180): 90; LMT (MI value) ([2]; Patient B, test 2): 135.5
2 | CO/N=C(\C(=O)N[C@@H]1C(=O)N2C(C(=O)O)=C(C[N+]3(C)CCCC3)CS[C@H]12)c1csc(N)n1 [Maxipime] | 88.21 | – | – | – | DLST (SI value) ([1]; Patient A, positive with SI value > 180): 112
3 | CCN1CCCC1CNC(=O)c1cc(S(N)(=O)=O)ccc1OC (stereo not shown) [dogmatyl, Sulpride] | – | +/− (80~90) | – | – | –
4 | COCCCOc1ccnc(C[S+]([O-])c2nc3ccccc3[nH]2)c1C (stereo not shown) [pariet, Rabeprazole sodium] | – | + (90~120) | – | – | –
5 | Mosapride citrate hydrate [gasmotin] | – | ++ (>120) | rapid migration of the chemotactic cells in the positive direction of the density gradient | ++ (>120) | migration distance (FIG. 5C) [3, 4]: significantly larger; migration velocity (FIG. 5B) [3, 4]: significantly larger
6 | phytohemagglutinin [PHA] | 154.87 | + (90~120) | weaker than that induced with (b) but stronger than those induced with the other suspected drugs | + (90~120) | DLST (SI value) ([1]; Patient A, class symbol): + (Positive with *SI value > 180 (DLST)); DLST (SI value) ([1]; Patient B, class symbol): + (Positive with *SI value > 180 (DLST)); LMT (MI value) ([2]; Patient B): 283.9
